Read-outs that look alike come from different tables or passages of the source.
Key:
[1] = tested on: Aβ deposition and glial cell activation in the brain; parameters: method as in Hu et al. (2014); details: transgenic mice; ref Hu et al. (2014); cited from earlier work
[2] = Absorbed constituents and pharmacokinetics in rat plasma after Formula 9002A (UPLC-QTof-MS); details: for half-life: SD, rat; for Fold increase of mean residence time after Formula 9002A vs monomer: vs administration of a monomer; for Fold increase of half-life after Formula 9002A vs monomer: vs intragastric or intravenous monomer from literature
Experimental: The supernatant were obtained and concentrated, then dissolved with 50% methanol–water at 4°C for LC-MS/MS analysis.
Waters Xevo G2-XS QTof-MS and Masslynx software were used to acquire LC-MS/MS raw data. Chromatographic separation on the Waters Acquity UPLC HSS T3 column was performed on the samples. The mobile phases consisted of (A) 0.1% formic acid in water and (B) acetonitrile. […] The flow rate was set at 0.3 ml/min. The temperatures of the column and the auto sampler were maintained at 40 and 4°C, respectively. The injection volume was 5 μl.
MS conditions: positive and negative ion electrospray modes were both used. Capillary voltages were set at 3 kV for the positive mode and 2.5 kV for the negative mode. Source temperature was set as 100 °C. Nitrogen was used as the nebulizer and auxiliary gas; flow rates and temperature of desolvation gas were 1,000 L/h and 400°C, respectively. The range of data acquisition was from 50 to 1,000 m/z, and the scan time was set to 0.2 s. MS^E analysis was performed with 6 eV for the low collision energy scan and 35 eV for the high collision energy scan.
The absorbed components were identified by the exact molecular mass, molecular formula, and MS^2 fragment data compared with the standard substances and literature data. The DAS 3.3.0 software was used for calculating the terminal elimination half-life (t1/2) and mean residence time (MRT).

3xTg AD mice = tested on: 3xTg AD mice; parameters: method as in Liu et al., 2013; details: after 8 months of treatment; ref Liu et al., 2013; cited from earlier work
[3] = parameters: method as in Naseri-Nosar and Ziora, 2018; details: ref Naseri-Nosar and Ziora, 2018, cited from earlier work
[4] = tested on: tight junction proteins (such as claudin-5 and occludin); parameters: method as in Gibson et al., 2014; details: by inhibiting the activation of MMP-9; ref Gibson et al., 2014; cited from earlier work
Nrf2 and HO-1 = tested on: Nrf2 and HO-1; parameters: method as in Hindam et al., 2014; details: streptozotocin-induced cognitive dysfunction; ref Hindam et al., 2014; cited from earlier work

SMILES: OCc1ccc(O[C@@H]2O[C@H](CO)[C@@H](O)[C@H](O)[C@H]2O)cc1 [gastrodin]
- Aβ deposition and glial cell activation in the brain [1]: significantly reduce Aβ deposition and glial cell activation
- half-life ([2]; in vivo): 2.58 h
- Fold increase of mean residence time after Formula 9002A vs monomer ([2]; plasma): ~2 fold
- Fold increase of half-life after Formula 9002A vs monomer ([2]; plasma): ~2 fold

SMILES: NC(=O)c1cccnc1 [niacinamide]
- Cognitive function (3xTg AD mice): could be improved

SMILES: OC[C@H]1O[C@@H](OCCc2ccc(O)cc2)[C@H](O)[C@@H](O)[C@@H]1O [salidroside]
- half-life ([2]; plasma): 2.12 h
- Fold increase of mean residence time after Formula 9002A vs monomer ([2]; plasma): ~2 fold
- Fold increase of half-life after Formula 9002A vs monomer ([2]; plasma): 2- to 3 fold
- half-life ([3]; gavage of salidroside monomer): 0.64 h
- half-life ([3]; intravenous injection of salidroside monomer): 1.16 h
- Tight junction proteins / BBB damage [4]: reversed the decrease in tight junction proteins

SMILES: O=c1ccc2ccc(O)cc2o1 [umbelliferone]
- Content of Nrf2 and HO-1 (Nrf2 and HO-1): significantly increase
